According to patent publication US20100099676A1 (SHIONOGI & CO., LTD., priority 2006, published 2010):
One block for each compound: values may come before it.

What was measured:
Assay in all cases: Enzyme inhibiting activity of MMPs, fluorogenic peptide substrate
Format in all cases: biochemical
[1] = molecular target: T1, MMP-2 (Homo sapiens, UniProt P08253); details: substrate MOCAc-Pro-Leu-Gly-Leu-A2Pr(DNP)-Ala-Arg-NH2, fluorescent intensity
T1 construct: purchased Calbiochem (EMD/MERCK Biosciences)
T1 sequence (P08253 110-660): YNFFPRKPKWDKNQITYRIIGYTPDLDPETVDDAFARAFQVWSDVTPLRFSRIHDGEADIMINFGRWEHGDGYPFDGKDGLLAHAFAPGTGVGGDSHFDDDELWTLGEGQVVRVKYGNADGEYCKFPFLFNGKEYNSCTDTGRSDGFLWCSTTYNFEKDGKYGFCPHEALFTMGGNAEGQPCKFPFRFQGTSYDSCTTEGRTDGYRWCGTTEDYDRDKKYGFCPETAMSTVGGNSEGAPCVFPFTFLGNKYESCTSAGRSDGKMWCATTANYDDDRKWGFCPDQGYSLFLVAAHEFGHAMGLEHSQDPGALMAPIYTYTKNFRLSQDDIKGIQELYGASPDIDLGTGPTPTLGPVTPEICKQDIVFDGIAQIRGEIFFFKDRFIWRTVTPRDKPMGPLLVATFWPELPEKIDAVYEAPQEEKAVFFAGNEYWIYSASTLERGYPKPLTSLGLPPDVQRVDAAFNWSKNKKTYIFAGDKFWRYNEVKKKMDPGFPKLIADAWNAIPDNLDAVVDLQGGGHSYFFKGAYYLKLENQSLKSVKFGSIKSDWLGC
Description: (§1) Various human MMPs (MMP-2, MMP-9 and MMP-13) were purchased from Calbiochem (EMD/MERCK Biosciences).
(§2) The enzyme activity of MMPs was measured according to the method described in C. Graham Knight, Frances Willenbrock and Gillian Murphy: A novel coumarin-labelled peptide for sensitive continuous assays of the matrix metalloproteinases: FEBS LETT., 296, (1992), 263-266. As a substrate, MOCAc-Pro-Leu-Gly-Leu-A2Pr(DNP)- Ala-Arg-NH2 (Peptide Institute, Inc. Osaka, Japan) was used, and the following four assays are performed per compound (inhibitor) for measuring the inhibiting activity.
(§3) (A) Substrate (synthetic substrate), enzyme (MMPs), inhibitor
(§4) (B) Substrate (synthetic substrate), inhibitor
(§5) (C) Substrate (synthetic substrate), enzyme (MMPs)
(§6) (D) Substrate (synthetic substrate)
(§7) In each assay, the fluorescent intensity was measured, and inhibition (%) was calculated by the following equation.
(§8) Inhibition (%)=[I−(A−B)/(C−D)]×100
(§9) IC50 indicates a concentration at which inhibition (%) is 50%.

[2] = molecular target: T2, MMP-9 (Homo sapiens, UniProt P14780); details: substrate MOCAc-Pro-Leu-Gly-Leu-A2Pr(DNP)-Ala-Arg-NH2, fluorescent intensity
T2 construct: purchased Calbiochem (EMD/MERCK Biosciences)
Description: as §1, §2, §3, §4, §5, §6, §7, §8, §9

[3] = molecular target: T3, MMP-13 (Homo sapiens, UniProt P45452); details: APMA-activated proenzyme; substrate MOCAc-Pro-Leu-Gly-Leu-A2Pr(DNP)-Ala-Arg-NH2, fluorescent intensity; read-out: IC50 MMP-13
T3 construct: purchased Calbiochem (EMD/MERCK Biosciences)
Outline: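 Pro-MMP-13 was activated with 1 mM APMA at 37° C for 2 h in 50 mM Tris-HCl pH 7.6, 0.3 M NaCl, 10 mM CaCl2, 0.005% Brij35. Activity was read by fluorescence using MOCAc-Pro-Leu-Gly-Leu-A2Pr(DNP)-Ala-Arg-NH2 substrate, with enzyme and inhibitor blank corrections. IC50 is the concentration giving 50% inhibition.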

T2 sequence (P14780 94-707): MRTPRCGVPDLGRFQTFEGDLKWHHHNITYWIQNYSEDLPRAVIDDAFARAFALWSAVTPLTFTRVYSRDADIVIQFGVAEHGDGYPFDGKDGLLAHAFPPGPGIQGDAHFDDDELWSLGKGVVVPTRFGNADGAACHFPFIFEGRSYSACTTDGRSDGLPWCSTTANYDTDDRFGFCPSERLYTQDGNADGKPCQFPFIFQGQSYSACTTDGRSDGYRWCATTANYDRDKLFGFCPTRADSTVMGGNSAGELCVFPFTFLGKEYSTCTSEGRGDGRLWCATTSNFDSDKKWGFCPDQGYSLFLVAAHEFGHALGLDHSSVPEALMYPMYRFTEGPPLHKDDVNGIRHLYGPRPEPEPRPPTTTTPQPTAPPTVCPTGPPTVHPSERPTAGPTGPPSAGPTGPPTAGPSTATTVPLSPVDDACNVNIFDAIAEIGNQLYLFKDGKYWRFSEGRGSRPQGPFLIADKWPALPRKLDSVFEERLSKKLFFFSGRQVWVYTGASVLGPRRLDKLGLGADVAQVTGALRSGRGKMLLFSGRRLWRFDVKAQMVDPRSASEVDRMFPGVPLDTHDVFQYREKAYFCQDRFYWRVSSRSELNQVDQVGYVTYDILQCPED

SMILES: CC(C)[C@@H](NS(=O)(=O)N1CCN(c2ccc(C#Cc3nc(-c4cccc(C(=O)NCC#N)c4)cs3)cc2)CC1)C(=O)O [Compound V-40, (R)-2-[4-(4-{4-[3-(cyanomethylcarbamoyl)-phenyl]-thiazol-2-ylethynyl}-phenyl)-piperazine-1-sulfonylamino]-3-methylbutanoic acid]
IC50 [1]: 1000 to 10000 nM
IC50 [2]: 1000 to 10000 nM
IC50 [3]: 8 nM

SMILES: CC(C)CO/N=C/c1c[nH]c2ccc(C#Cc3ccc(N4CCN(S(=O)(=O)N[C@H](C)C(=O)O)CC4)cc3)cc12 [Compound V-43, (R)-2-(4-{4-[3-((E)-isobutoxyiminomethyl)-1H-indol-5-ylethynyl]-phenyl}-piperazine-1-sulfonylamino)-proponic acid]
IC50 [1]: > 10000 nM
IC50 [2]: > 10000 nM
IC50 [3]: 19 nM

SMILES: C[C@@H](NS(=O)(=O)N1CCN(c2ccc(C#Cc3ccc4c(c3)c(/C=C/Cl)cn4C)cc2)CC1)C(=O)O [Compound V-44, (R)-2-(4-{4-[3-((E)-2-chrolovinyl)-1-methyl1H-indol-5-ylethynyl]-phenyl}-piperazine-1-sulfonylamino)-proponic acid]
IC50 [1]: 1000 to 10000 nM
IC50 [2]: > 10000 nM
IC50 [3]: 16 nM

SMILES: C[C@@H](NS(=O)(=O)N1CCN(c2ccc(C#Cc3ccc4c(c3)C(=O)N(Cc3ccccc3)CCN4)cc2)CC1)C(=O)O [Compound V-51, (R)-2-{4-[4-(4-benzyl-5-oxo-2,3,4,5-tetrahydro-1H-benzo[e][1,4]diazepin-7-ylethynyl)-phenyl]-piperazine-1-sulfonylamino}-proponic acid]
IC50 [1]: 1000 to 10000 nM
IC50 [2]: > 10000 nM
IC50 [3]: 8 nM

SMILES: C[C@@H](NS(=O)(=O)N1CCN(c2ccc(C#Cc3ccc4c(c3)C(=O)N(Cc3ccccc3)CCN4C)cc2)CC1)C(=O)O [Compound V-52, (R)-2-{4-[4-(4-benzyl1-methyl-5-oxo-2,3,4,5-tetrahydro1H-benzo[e][1,4]diazepin-7-ylethynyl)-phenyl]-piperazine-1-sulfonylamino}-proponic acid]
IC50 [1]: 1000 to 10000 nM
IC50 [2]: 1000 to 10000 nM
IC50 [3]: 12 nM

SMILES: CC(=O)c1csc2ccc(C#Cc3ccc(N4CCN(S(=O)(=O)N[C@H](C)C(=O)O)CC4)cc3)cc12 [Compound V-56, (R)-2-{4-[4-(3-acetylbenzo[b]thiophen-5-ylethynyl)-phenyl]-piperazine-1-sulfonylamino}-proponic acid]
IC50 [1]: 1000 to 10000 nM
IC50 [2]: > 10000 nM
IC50 [3]: 16 nM

SMILES: CCc1cnc(-c2cc(C#Cc3ccc(N4CCN(S(=O)(=O)N[C@@H](C(=O)O)C(C)C)CC4)cc3)ccc2OCCOC)o1 [Compound V-57, (R)-2-(4-{4-[3-(5-ethyloxazol-2-yl)-4-(2-methoxyethoxy)-phenylethynyl]-phenyl}-piperazine-1-sulfonylamino)-3-methylbutanoic acid]
IC50 [1]: 1000 to 10000 nM
IC50 [2]: > 10000 nM
IC50 [3]: 13 nM

SMILES: C[C@@H](NS(=O)(=O)N1CCN(c2ccc(C#Cc3ccc4c(c3)c(=O)n(Cc3ccc(F)cc3)c(=O)n4C)cc2)CC1)C(=O)O [Compound V-71, (R)-2-(4-{4-[3-(4-fluorobenzyl)-1-methyl-2,4-dioxo-1,2,3,4-tetrahydroquinazolin-6-ylethynyl]-phenyl}-piperazine-1-sulfonylamino)-proponic acid]
IC50 [1]: > 10000 nM
IC50 [2]: > 10000 nM
IC50 [3]: 8 nM

SMILES: CC(C)[C@@H](NS(=O)(=O)N1CCN(c2ccc(C#Cc3nc(-c4cccc(OCc5ccc(C(N)=O)cc5)c4)cs3)cc2)CC1)C(=O)O [Compound V-78, (R)-2-[4-(4-{4-[3-(4-carbamoylbenzyloxy)-phenyl]-thiazol-2-ylethynyl}-phenyl)-piperazine-1-sulfonylamino]-3-methylbutanoic acid]
IC50 [1]: > 10000 nM
IC50 [2]: > 10000 nM
IC50 [3]: 4 nM

SMILES: CNC(=O)c1ccc(COc2cccc(-c3csc(C#Cc4ccc(N5CCN(S(=O)(=O)N[C@@H](C(=O)O)C(C)C)CC5)cc4)n3)c2)cc1 [Compound V-79, (R)-3-methyl-2-[4-(4-{4-[3-(4-methylcarbamoylbenzyloxy)-phenyl]-thiazol-2-ylethynyl}-phenyl)-piperazine-1-sulfonylamino]-butanoic acid]
IC50 [1]: > 10000 nM
IC50 [2]: > 10000 nM
IC50 [3]: 4 nM

SMILES: CC(C)[C@@H](NS(=O)(=O)N1CCN(c2ccc(C#Cc3ccnc(C(=O)NCc4ccc5oc(=O)n(C)c5c4)c3)cc2)CC1)C(=O)O [Compound V-85, (R)-3-methyl-2-[4-(4-{2-[(3-methyl-2-oxo-2,3-dihydrobenzoxazol-5-ylmethyl)-carbamoyl]-pyridin-4-ylethynyl}-phenyl)-piperazine-1-sulfonylamino]-butanoic acid]
IC50 [1]: 1000 to 10000 nM
IC50 [2]: > 10000 nM
IC50 [3]: 2 nM

Next, values leading:

IC50 [1]: 1000 to 10000 nM
IC50 [2]: > 10000 nM
IC50 [3]: 10 nM
SMILES: CC(C)[C@@H](NS(=O)(=O)N1CCN(c2ccc(C#Cc3ccc4ncn(Cc5ccc(F)cc5)c(=O)c4c3)cc2)CC1)C(=O)O [Compound V-59, (R)-2-(4-{4-[3-(4-fluorobenzyl)-4-oxo-3,4-dihydroquinazolin-6-ylethynyl]-phenyl}-piperazine-1-sulfonylamino)-3-methylbutanoic acid]

IC50 [1]: > 10000 nM
IC50 [2]: > 10000 nM
IC50 [3]: 21 nM
SMILES: CC(C)[C@@H](NS(=O)(=O)N1CCN(c2ccc(C#Cc3ccc4c(c3)c(=O)n(Cc3ccc(F)cc3)c(=O)n4C)cc2)CC1)C(=O)O [Compound V-60, (R)-2-(4-{4-[3-(4-fluorobenzyl)-1-methyl-2,4-dioxo-1,2,3,4-tetrahydroquinazolin-6-ylethynyl]-phenyl}-piperazine-1-sulfonylamino)-3-methylbutanoic acid]

IC50 [1]: 1000 to 10000 nM
IC50 [2]: > 10000 nM
IC50 [3]: 8 nM
SMILES: CC(C)[C@@H](NS(=O)(=O)N1CCN(c2ccc(C#Cc3ccc4[nH]c(=O)n(CC#N)c(=O)c4c3)cc2)CC1)C(=O)O [Compound V-63, (R)-2-{4-[4-(3-cyanomethyl-2,4-dioxo-1,2,3,4-tetrahydroquinazolin-6-ylethynyl)-phenyl]-piperazine-1-sulfonylamino}-3-methylbutanoic acid]

IC50 [1]: > 10000 nM
IC50 [2]: > 10000 nM
IC50 [3]: 17 nM
SMILES: CC(C)[C@@H](NS(=O)(=O)N1CCN(c2ccc(C#Cc3ccc4[nH]c(=O)n(Cc5cccc(F)c5)c(=O)c4c3)cc2)CC1)C(=O)O [Compound V-65, (R)-2-(4-{4-[3-(3-fluorobenzyl)-2,4-dioxo-1,2,3,4-tetrahydroquinazolin-6-ylethynyl]-phenyl}-piperazine-1-sulfonylamino)-3-methylbutanoic acid]

IC50 [1]: 1000 to 10000 nM
IC50 [2]: 1000 to 10000 nM
IC50 [3]: 5 nM
SMILES: CC(C)[C@@H](NS(=O)(=O)N1CCN(c2ccc(C#Cc3ccc4c(c3)c(=O)n(CC#N)c(=O)n4C)cc2)CC1)C(=O)O [Compound V-68, (R)-2-{4-[4-(3-cyanomethyl-1-methyl-2,4-dioxo-1,2,3,4-tetrahydroquinazolin-6-ylethynyl)-phenyl]-piperazine-1-sulfonylamino}-3-methylbutanoic acid]

IC50 [1]: 1000 to 10000 nM
IC50 [2]: > 10000 nM
IC50 [3]: 16 nM
SMILES: CC(C)[C@@H](NS(=O)(=O)N1CCN(c2ccc(C#Cc3ccc4c(c3)C(=O)N(Cc3cccc(F)c3)C(C)(C)N4)cc2)CC1)C(=O)O [Compound V-74, (R)-2(4-{4-[3-(3-fluorobenzyl)-2,2-dimethyl4-oxo-1,2,3,4-tetrahydroquinazolin-6-ylethynyl]-phenyl}-piperazine-1-sulfonylamino)-3-methylbutanoic acid]

IC50 [1]: > 10000 nM
IC50 [2]: > 10000 nM
IC50 [3]: 18 nM
SMILES: CC(C)[C@@H](NS(=O)(=O)N1CCN(c2ccc(C#Cc3ccc4c(c3)c(=O)n(Cc3ccc(F)c(F)c3)c(=O)n4C)cc2)CC1)C(=O)O [Compound V-76, (R)-2-(4-{4-[3-(3,4-difluorobenzyl)-1-methyl-2,4-dioxo-1,2,3,4-tetrahydroquinazolin-6-ylethynyl]-phenyl}-piperazine-1-sulfonylamino)-3-methylbutanoic acid]
